For data set [1], the system named is recombinant purified SERCA1a (recS1a). In words: Limited proteolysis with proteinase K (SDS-PAGE). Format: biochemical, rabbit (expressed in S. cerevisiae). The following applies: DDM-solubilized SR; 5 min profile similar to 60 min in native lipids. Here is the method: Yeast-expressed and purified SERCA1a (recS1a) was supplemented with SLN at a mole:mole ratio of 1:10 recS1a:SLN. In absence of SLN, recS1a was supplemented with 0.07 mg/mL C12E8, an amount that corresponds to the detergent brought with chemically synthesized SLN. After 30 min at 20 °C, samples were supplemented with either 1.1 mM EGTA (Ca^2+free ~ 1 mM), or 50 mM EGTA (Ca^2+free ~ 150 nM) and 0.01 mg/mL Tg. After an additional incubation for 10 min at 20 °C, proteolysis was achieved by addition of 0.3 mg/mL proteinase K. Proteolysis was stopped by addition of 1 mM PMSF and incubation on ice for 10 min. After proteolysis arrest, samples were diluted twice in a 4 M-urea containing denaturation buffer, boiled for 60 s, and about 0.75 µg protein were loaded on a 9% SDS-PAGE prepared in the presence of 1 mM Ca^2+[32]. After electrophoresis, gels were stained with Coomassie blue.

The target in data set [2] is T1, recombinant SERCA1a (recS1a) (Oryctolagus cuniculus, UniProt P04191).
T1 construct: BAD (biotin acceptor domain) (C, cleaved yes); made in house; host or cells: Saccharomyces cerevisiae
Kind of data set: Mg.ATP binding by tryptophan fluorescence. Details: species or system rabbit (expressed in S. cerevisiae). Here is the method:
(§1) Intrinsic fluorescence of SERCA1a was measured with a SPEX Fluorolog spectrofluorometer (Horiba/Jobin–Yvon, Longjumeau, France) as described before. Briefly, signals were monitored with excitation and emission wavelength set at 295 and 320 nm, with bandwidths of 2 and 10 nm, respectively. Changes in tryptophan fluorescence were recorded at 20 °C after dilution of protein samples to a final concentration of about 6–7.5 µg/mL into a medium containing 50 mM MOPS-Tris pH 7, 100 mM KCl, 5 mM MgCl2, 20% glycerol (v/v) and 10 mg/mL DDM. In presence of SLN, recS1a and SLN were first mixed together and incubate for 1 h on ice before measurement. In absence of SLN, recS1a is supplemented with 0.07 mg/mL C12E8 to compensate the detergent present with SLN. The Maxchelator program was used for estimating [Ca^2+]free[59] (program available at https://somapp.ucdmc.ucdavis.edu/pharmacology/bers/maxchelator/downloads.htm). The dissociation constant of the Ca.EGTA complex was taken to be 0.4 µM at pH7 and was assumed to be the same in the presence of glycerol.

Data set [3] has as its target T1, recombinant SERCA1a (recS1a). In words: Calcium binding at equilibrium by tryptophan fluorescence. Details: species or system rabbit (expressed in S. cerevisiae). The following applies: absence of pSLN, average of three independent experiments. Here is the method: as §1
Data set [4] has the same target. In words: Steady-state ATPase activity, enzyme-coupled assay. As to conditions: absence of pSLN; steady state, NADH-coupled assay; three independent experiments. In kind it is biochemical, rabbit (expressed in S. cerevisiae). Here is the method: resuspended in a large volume of pure water and lyophilized to evaporate most of the TFA. The rinsed powder was then suspended in presence of 10 mM HCl to exchange the anionic residual TFA that may interact with the positive charges of the peptide for chloride. This suspension was lyophilized again.
Three additional cycles of – dissolving in pure water / lyophilisation – will allow to eliminate traces of TFA and to get back to a pH compatible with functional tests. For final solubilisation of SLN in detergent, powder was then dissolved in 50% TFE and an amount of detergent to reach a 100:1 mole:mole detergent:SLN ratio. Here, we used C12E8 as it is fully compatible with functional characterization of SERCA1a 23. This suspension was then lyophilized again to evaporate TFE.
Sarcolipins (Palm-SLN or SLN) were finally resuspended at 0.8 mg/mL (about 200 µM) in a 10 mM potassium phosphate buffer pH 7.4, in the presence of 2.5 mg/mL C12E8.
Expression and Purification of recombinant SERCA1a (recS1a)
The yeast expression plasmid pYeDP60-SERCA1a-BAD (WT) and expression in Saccharomyces cerevisiae was described previously 30. Yeast membranes were solubilized by DDM for subsequent purification of recombinant Ca2+-ATPase by Streptavidin affinity chromatography 31. Purified recombinant SERCA1a was recovered in a buffer containing 50 mM MOPS-Tris pH7, 100 mM KCl, 5 mM MgCl2, 2.1 mM CaCl2, 40 % glycerol (v/v) and 0.5 mg/mL DDM, together with some thrombin remaining from the elution procedure. The protein concentration in the purified fraction was in the 0.05 to 0.15 mg/mL range depending on the batch. […]
Steady-state ATPase activity measurements
Measurements were performed using classical enzyme coupled assay. We measured the rate of NADH oxidation in the presence of 0.1 mg/mL lactate deshydrogenase, 0.05 mg/mL pyruvate kinase, 1 mM phosphoenolpyruvate, 0.25 mM NADH (protocol was adapted from 22) and in the additional presence of 2 mg/mL C12E8 to limit time-dependent inactivation of the purified SERCA1a 20,23.

Data set [5] has the same target. Kind of data set: Calcium dependence of phosphoenzyme level. Format: biochemical, rabbit (expressed in S. cerevisiae). As to conditions: absence of pSLN, five independent experiments. Here is the method:
(§2) Transient formation of the phosphoenzyme intermediate was measured after incubation with [γ^32P]ATP followed by acid quenching, and filtration. For most experiments, 50 µL of enzyme at 10 µg/mL in a buffer containing 50 mM Tes-Tris pH7.5, 1 mM KCl, 5 mM MgCl2, 20% glycerol (w/w) and 0.5 mg/mL DDM, supplemented or not with SLN, was stored on ice. Concentrations of EGTA and calcium are specified in figure legends in order to reach the appropriate [Ca^2+]free and therefore the desired starting state for the ATPase. For kinetics of phosphorylation, we initiate reaction by addition of 2 µM [γ^32P]ATP (5 mCi/µmole), and calcium at 100 µM when specified. Reaction was quenched by addition of 2 mL of cold quenching medium (500 mM TCA + 30 mM H3P0_4) under vigorous mixing, and immediately stored on ice for 20–30 min to improve precipitation, a period of time critical for retention of the precipitate on the filter in presence of detergent. This was followed by filtration on GS filters (Millipore, Saint Quentin-Fallavier, France) and careful rinsing of the filters with diluted quenching medium (50 mM TCA + 3 mM H3P0_4). The amount of radioactivity bound to the filter was estimated by liquid scintillation counting (Perkin Elmer TriCarb Counter). When starting from a calcium-deprived state (Fig. 4C,D), EGTA was added only one minute before starting phosphorylation to limit irreversible inactivation of the solubilized ATPase, although the presence of glycerol helps in protecting the enzyme from irreversible inactivation. For dephosphorylation kinetics, 1 mM “cold” Mg.ATP was added after a 30 s period of phosphorylation. For Ca^2+-dependency, we adjust the concentration of free calcium according to the Ca.EGTA constant as mentioned above, before triggering phosphorylation. […] Phosphorylations were done at 0 °C especially for inhibition by vanadate to prevent dissociation of vanadate and limit irreversible inactivation in absence of calcium.

Data set [6] has the same target. Kind of data set: Vanadate inhibition of phosphoenzyme formation, recS1a. In kind it is biochemical, rabbit (expressed in S. cerevisiae). As to conditions: absence of pSLN, phosphorylation 30 s at 0 °C, three independent experiments. Here is the method:
as §2

For data set [7], the system named is SERCA1a. The following applies: cited from earlier work. From the text: (§3) Besides its various roles in protein signalling and addressing, palmitoylation can also regulate oligomerisation processes of membrane proteins. Recent work has shown that other P-type ATPases regulatory subunits like phospholamban (PLB) and phospholemman (PLM) are palmitoylated[16],[17]. Acylation of PLB and PLM is functionally relevant by having an impact on the oligomerisation of the peptides, their association with their dedicated pumps (Ca^2+-ATPase or Na+, K+-ATPase, respectively) and on their lifetime.

The test system of the next data set is protein kinase A (PKA). As to conditions: cited from earlier work.
Description: as §3

For data set [8], the system named is protein phosphatase 1a (PP1a). As to conditions: cited from earlier work.
Description: as §3

Data set [9] deals with SERCA1a. The following applies: deacylation with hydroxylamine; steady state; in membrane or after solubilization by C12E8; cited from earlier work. From the text: Effect on the turnover is less clear as it seems to highly depend on the system used for functional characterization. […] This post-translational modification is also present in pig SLN and presumably in a few other mammals and birds, as judged from the amino-acid sequences. Among the other hundred seq ...

Where “and” joins values, the source holds several entries; their conditions need not be identical. Identical values can stand only once. Ends that are not written are not given here.

T1 sequence (P04191 1-994 isoform P04191-2): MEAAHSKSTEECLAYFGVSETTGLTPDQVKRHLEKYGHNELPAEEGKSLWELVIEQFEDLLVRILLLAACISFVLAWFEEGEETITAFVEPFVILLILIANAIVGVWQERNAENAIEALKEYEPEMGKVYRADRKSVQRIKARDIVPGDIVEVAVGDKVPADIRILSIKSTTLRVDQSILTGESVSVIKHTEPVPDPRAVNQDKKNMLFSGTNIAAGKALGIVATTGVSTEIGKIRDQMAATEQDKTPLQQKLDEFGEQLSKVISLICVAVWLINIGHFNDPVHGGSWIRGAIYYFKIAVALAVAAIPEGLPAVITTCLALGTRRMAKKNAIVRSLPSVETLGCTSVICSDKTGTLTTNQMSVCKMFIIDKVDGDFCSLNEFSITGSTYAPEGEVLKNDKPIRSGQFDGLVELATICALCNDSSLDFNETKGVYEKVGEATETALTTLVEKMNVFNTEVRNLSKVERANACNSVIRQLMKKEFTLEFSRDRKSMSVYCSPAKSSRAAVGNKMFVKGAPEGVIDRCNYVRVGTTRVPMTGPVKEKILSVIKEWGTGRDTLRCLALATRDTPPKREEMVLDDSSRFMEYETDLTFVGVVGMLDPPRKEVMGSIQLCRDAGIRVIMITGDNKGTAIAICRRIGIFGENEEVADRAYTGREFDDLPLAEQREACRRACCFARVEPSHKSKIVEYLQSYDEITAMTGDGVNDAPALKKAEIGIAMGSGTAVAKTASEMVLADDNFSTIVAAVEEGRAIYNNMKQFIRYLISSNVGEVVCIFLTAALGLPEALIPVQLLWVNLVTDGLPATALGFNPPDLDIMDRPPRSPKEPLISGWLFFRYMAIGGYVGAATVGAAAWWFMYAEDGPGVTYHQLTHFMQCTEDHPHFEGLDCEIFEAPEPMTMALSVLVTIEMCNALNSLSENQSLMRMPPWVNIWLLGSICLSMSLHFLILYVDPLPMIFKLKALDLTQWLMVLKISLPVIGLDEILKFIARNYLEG

For `CCCCCCCCCCCCO[C@@H]1O[C@H](CO)[C@@H](O[C@H]2O[C@H](CO)[C@@H](O)[C@H](O)[C@H]2O)[C@H](O)[C@H]1O` [DDM, n-dodecyl β-D-maltopyranoside, reference compound], in data set [1], the “effect of detergent on proteinase K proteolysis” value is on record as “significantly accelerates proteolysis”.
`Nc1ncnc2c1ncn2[C@@H]1O[C@H](COP(=O)(O)OP(=O)([O-])OP(=O)([O-])O)[C@@H](O)[C@H]1O.[Mg+2]` [Mg.ATP, reference compound]: the “Mg-ATP1/2 (affinity for Mg.ATP), recS1a alone” value in [2] (absence of pSLN, calcium-deprived (2 mM EGTA), pH 7, 20 °C, DDM, 20% glycerol, three independent experiments) is 3 µM and 3.00 ± 0.12 µM. Further, the “nH for Mg.ATP, recS1a alone” value in data set [2] (absence of pSLN, three independent experiments) is listed as 0.99 ± 0.04. Besides, the “Mg.ATP concentration sufficient to saturate the SERCA1a site” value in [2] (in absence of SLN, not in its presence) was “about 30 µM”.
Regarding `[Ca+2]` [calcium], in data set [3] (at equilibrium, pH 7, 20 °C, DDM, 20% glycerol), the “Ca1/2 (tryptophan fluorescence), recS1a alone” value is 2.94 ± 0.30 µM and 2.9 µM. Besides, in data set [3], the “nH for calcium (tryptophan fluorescence), recS1a alone” value is reported as 1.67+/-0.25. For the same molecule, the “Ca1/2 (ATPase activity), recS1a alone” value in data set [4] worked out at 0.15 ± 0.08 µM. The “nH for calcium (phosphoenzyme level), recS1a alone” value in data set [5] worked out at 0.54 ± 0.02. Further, the “Ca1/2 (phosphoenzyme level), recS1a alone” value in [5] (phosphorylation 15 s) is 0.33 ± 0.03 µM and 0.33 µM.
For `[O]=[V]([O-])([O-])[O-]` [orthovanadate, reference compound], the “K1/2 (K0.5) for vanadate inhibition, recS1a alone” value in [6] and in data set [6] (listed as vanadate) was 1.43 ± 0.08 µM throughout.
For the molecule “PLB: phospholamban, 52 amino-acid long, with a transmembrane helix and a long cytosolic extension”, the “effect of PLB phosphorylation on SERCA1a inhibition” value in the data set with SERCA1a [7] is “release of SERCA1a inhibition without its full dissociation from the pump”. For the same molecule, the “effect of PLB palmitoylation (Cys 36) on PKA affinity” value in the data set with protein kinase A (PKA) is on record as “increases affinity for protein kinase A (PKA)”. The “effect of PLB palmitoylation (Cys 36) on PP1a affinity” value in data set [8] is reported as “reduces affinity for protein phosphatase 1a (PP1a)”.
In the case of “native SLN: native rabbit sarcolipin, S-palmitoylated or S-oleoylated on Cys9, co-purified with SERCA1a from SR (MERSTRELCLNFTVVLITVILIWLLVRSYQY; also: Cys9 S-palmitoylated or S-oleoylated; UniProt P42532 1-31, looked up)”, the “effect of deacylation of native SLN on affinity for calcium and Vmax” value in the data set on SERCA1a [9] is “no effect”.

These data come from article PMC7810697, “Sarcolipin alters SERCA1a interdomain communication by impairing binding of both calcium and ATP” (Scientific Reports, 2021).
